From ChEMBL document CHEMBL5143694, “A novel survivin dimerization inhibitor without a labile hydrazone linker induces spontaneous apoptosis and synergizes with docetaxel in prostate cancer cells” (Bioorg Med Chem, 2022)
pIC50: −log10 of the molar value. Activity calls are given as the source filed them. The calls are words filed in the database; no cut-off is given here.

Columns and labels:
PC-3 [1] = assay: Cytotoxicity against human PC-3 cells assessed as reduction in cell viability incubated for 72 hrs by methylene blue survival assay; type: functional, cell-based; conditions: PC-3, 72 h
LNCaP C4-2 [2] = assay: Cytotoxicity against human LNCaP C4-2 cells assessed as reduction in cell viability incubated for 72 hrs by methylene blue survival assay; type: functional, cell-based; conditions: LNCaP C4-2, 72 h
PC-3 [3] = assay: Cytotoxicity against human PC-3 cells assessed as inhibition of cell survival at 2.5 uM incubated for 72 hrs by methylene blue survival assay; type: functional
LNCaP C4-2 [4] = assay: Cytotoxicity against human LNCaP C4-2 cells assessed as inhibition of cell survival at 2.5 uM incubated for 72 hrs by methylene blue survival assay; type: functional
[5] = target: Baculoviral IAP repeat-containing protein 5 (Homo sapiens) (UniProt O15392); assay: Inhibition of survivin-GAL4-DBD dimerization (unknown origin) expressed in human LNCaP C4-2 cells incubated for 24 hrs by SEAP reporter based mammalian two hybrid assay; type: cell-based
[6] = target: Baculoviral IAP repeat-containing protein 5 (Homo sapiens) (UniProt O15392); assay: Inhibition of survivin dimerization in human LNCaP C4-2 cells assessed as survivin degradation at 1 uM incubated for 24 hrs by Western blot analysis; type: cell-based
[7] = target: Baculoviral IAP repeat-containing protein 5 (Homo sapiens) (UniProt O15392); assay: Inhibition of survivin dimerization in human PC-3 cells assessed as survivin degradation at 1 uM incubated for 24 hrs by Western blot analysis; type: cell-based
LNCaP C4-2 [8] = assay: Cytotoxicity against human LNCaP C4-2 cells with survivin overexpression assessed as reduction in cell viability incubated for 72 hrs by methylene blue survival assay; type: functional, cell-based; conditions: LNCaP C4-2, 72 h
LNCaP C4-2 [9] = assay: Cytotoxicity against human LNCaP C4-2 cells with empty vector-transfection assessed as reduction in cell viability incubated for 72 hrs by methylene blue survival assay; type: functional, cell-based; conditions: LNCaP C4-2, 72 h
[10] = target: Baculoviral IAP repeat-containing protein 5 (Homo sapiens) (UniProt O15392); assay: Inhibition of survivin dimerization in human LNCaP C4-2 cells assessed as survivin degradation at 500 nM incubated for 24 hrs by Western blot analysis; type: cell-based
[11] = target: Baculoviral IAP repeat-containing protein 5 (Homo sapiens) (UniProt O15392); assay: Inhibition of survivin dimerization in human PC-3 cells assessed as survivin degradation at 500 nM incubated for 24 hrs by Western blot analysis; type: cell-based
PC-3 [12] = assay: Induction of apoptosis in human PC-3 cells at 200 nM incubated for 24 hrs by annexin V-FITC and propidium iodide staining based flow cytometry; type: functional
LNCaP C4-2 [13] = assay: Induction of apoptosis in human LNCaP C4-2 cells at 200 nM incubated for 24 hrs by annexin V-FITC and propidium iodide staining based flow cytometry; type: functional
PC-3 [14] = assay: Induction of apoptosis in human PC-3 cells assessed as increase in cleaved caspase-3 level at 200 nM incubated for 24 hrs by Western blot analysis; type: functional, cell-based
LNCaP C4-2 [15] = assay: Induction of apoptosis in human LNCaP C4-2 cells assessed as increase in cleaved caspase-3 level at 200 nM incubated for 24 hrs by Western blot analysis; type: functional, cell-based
LNCaP C4-2 [16] = assay: Synergistic potentiation of docetaxel-induced cytotoxicity against human LNCaP C4-2 cells assessed as combination index for reduction in cell viability at docetaxel/7F1 ratios ((1:1, 3:1, and 1:3 using their cytotoxic IC50) incubated for 72 hrs by methylene blue survival assay; type: functional
PC-3 [17] = assay: Synergistic potentiation of docetaxel-induced cytotoxicity against human PC-3 cells assessed as combination index for reduction in cell viability at docetaxel/7F1 ratios ((1:1, 3:1, and 1:3 using their cytotoxic IC50) incubated for 72 hrs by methylene blue survival assay; type: functional

Chain of Baculoviral IAP repeat-containing protein 5 (Homo sapiens) (O15392 whole entry, the tested form may be a part): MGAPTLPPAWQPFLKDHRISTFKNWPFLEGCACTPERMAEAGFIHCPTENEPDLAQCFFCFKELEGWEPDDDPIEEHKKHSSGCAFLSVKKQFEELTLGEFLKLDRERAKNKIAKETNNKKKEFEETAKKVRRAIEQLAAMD

Compound | pIC50 (PC-3 [1]) | pIC50 (LNCaP C4-2 [2]) | inhibition at 2.5 µM (PC-3 [3]) [%] | inhibition at 2.5 µM (LNCaP C4-2 [4]) [%] | inhibition [5] | inhibition [6] | inhibition [7] | pIC50 (LNCaP C4-2 [8]) | pIC50 (LNCaP C4-2 [9]) | inhibition [10] | inhibition [11] | Activity (PC-3 [12]) [%] | Activity (LNCaP C4-2 [13]) [%] | Activity (PC-3 [14]) | Activity (LNCaP C4-2 [15]) | CI (LNCaP C4-2 [16]) | CI (PC-3 [17])
Nc1nonc1C(=O)N/N=C1\c2ccccc2-c2nc3nonc3nc21 | 5.52 | 5.61 | 50 | 50 | Active | Active | Active | – | – | – | – | – | – | – | – | – | –
O=C1c2ccccc2-c2nc3nonc3nc21 | 6.80 | 6.77 | > 80 | 80 | Active | Active | Active | 6.02 | 6.70 | Active | Active | 20 | 20 | Active | Active | 0.025 | 0.025
